# Source: patent publication US20230085440A1, “METHODS OF PREVENTING AND TREATING PAIN AND ASSOCIATED SYMPTOMS” (Ethismos Research, Inc., priority 2021, published 2023)
# Target: T1, 5-HT2c receptor (Homo sapiens, UniProt P28335)
# T1 sequence (P28335 33-458): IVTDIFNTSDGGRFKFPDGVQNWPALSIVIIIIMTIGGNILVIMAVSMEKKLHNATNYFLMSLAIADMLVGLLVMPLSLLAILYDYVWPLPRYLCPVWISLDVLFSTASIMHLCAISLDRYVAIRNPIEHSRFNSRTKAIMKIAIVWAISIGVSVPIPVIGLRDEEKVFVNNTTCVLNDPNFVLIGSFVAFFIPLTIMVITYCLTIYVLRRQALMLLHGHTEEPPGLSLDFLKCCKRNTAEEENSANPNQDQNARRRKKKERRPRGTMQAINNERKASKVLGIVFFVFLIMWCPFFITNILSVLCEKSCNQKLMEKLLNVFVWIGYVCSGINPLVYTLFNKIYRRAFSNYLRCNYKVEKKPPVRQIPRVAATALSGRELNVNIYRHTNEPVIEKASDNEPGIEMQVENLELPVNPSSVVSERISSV
# Assay: [35S]guanosine 5-O-(3-thio)triphosphate binding (5-HT2c partial agonism)
# Type: biochemical
# Conditions: [35S]GTPgammaS binding, partial agonist
smiles,measurement,value
Clc1ccc([C@]23CNC[C@H]2C3)cc1Cl [amitifadine],Emax,52%
